Laboratory results: PubChem BioAssay (NCI)
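Values below derive from 48-hour exposures of cells grown in 96-well plates, with endpoints linearly interpolated between the two concentrations bracketing the appropriate inhibition level. The concentration for 50% growth inhibition is given as GI50. TGI denotes the concentration required for complete inhibition of growth.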

Assays:
Assay in all cases: NCI-60 cell line screen, 48 h
PC-3 prostate = tested on: PC-3 prostate
OVCAR-8 ovarian = tested on: OVCAR-8 ovarian
RXF 393 renal = tested on: RXF 393 renal
OVCAR-4 ovarian = tested on: OVCAR-4 ovarian
CCRF-CEM leukemia = tested on: CCRF-CEM leukemia
UACC-257 melanoma = tested on: UACC-257 melanoma
HL-60(TB) leukemia = tested on: HL-60(TB) leukemia
LOX IMVI melanoma = tested on: LOX IMVI melanoma
A498 renal = tested on: A498 renal
HOP-62 NSCLC = tested on: HOP-62 NSCLC

With `COc1ccc(-n2cc(-c3cc(OC)c(OC)c(OC)c3)c(C(=O)C(F)(F)F)c2C)cc1` as the compound, how does the GI50 (PC-3 prostate) read?
Its GI50 is 9.01 µM.

What about the TGI (PC-3 prostate) of the same compound?
Its TGI is greater than 100 µM.

And the GI50 (OVCAR-8 ovarian)?
The GI50 was greater than 100 µM.

What about the TGI (OVCAR-8 ovarian) of the same compound?
Its TGI is greater than 100 µM.

And the GI50 (RXF 393 renal)?
The GI50 was greater than 100 µM.

And the TGI (RXF 393 renal)?
Its TGI is greater than 100 µM.

And the GI50 (OVCAR-4 ovarian)?
The GI50 was 9.28 µM.

And the TGI (OVCAR-4 ovarian)?
Its TGI is greater than 100 µM.

And the GI50 (CCRF-CEM leukemia)?
Its GI50 is 16.1 µM.

What about the TGI (CCRF-CEM leukemia) of the same compound?
Its TGI is greater than 100 µM.

What about the GI50 (UACC-257 melanoma) of the same compound?
The GI50 was 15.7 µM.

What about the TGI (UACC-257 melanoma) of the same compound?
The TGI was greater than 100 µM.

And the GI50 (HL-60(TB) leukemia)?
Its GI50 is 37.3 µM.

And the TGI (HL-60(TB) leukemia)?
Its TGI is greater than 100 µM.

What about the GI50 (LOX IMVI melanoma) of the same compound?
The GI50 was 47.4 µM.

And the TGI (LOX IMVI melanoma)?
Its TGI is greater than 100 µM.

What about the GI50 (A498 renal) of the same compound?
The GI50 was 6.4 µM.

What about the TGI (A498 renal) of the same compound?
Its TGI is greater than 100 µM.

And the GI50 (HOP-62 NSCLC)?
The GI50 was greater than 100 µM.

What about the TGI (HOP-62 NSCLC) of the same compound?
Its TGI is greater than 100 µM.

Which GI50 (PC-3 prostate) does the source give for `CCN1CCN(C(c2ccc(C(F)(F)F)cc2)c2ccc3cccnc3c2O)CC1` (stereo not drawn) here?
The GI50 was 0.361 µM.

And the TGI (PC-3 prostate)?
Its TGI is 17.6 µM.

What about the GI50 (OVCAR-8 ovarian) of the same compound?
The GI50 was 1.85 µM.

What about the TGI (OVCAR-8 ovarian) of the same compound?
The TGI was 13.5 µM.

And the GI50 (RXF 393 renal)?
The GI50 was 3.2 µM.

And the TGI (RXF 393 renal)?
Its TGI is 16 µM.

What about the GI50 (OVCAR-4 ovarian) of the same compound?
Its GI50 is 2.36 µM.

And the TGI (OVCAR-4 ovarian)?
Its TGI is 14.3 µM.

What about the GI50 (CCRF-CEM leukemia) of the same compound?
Its GI50 is 1.45 µM.

What about the TGI (CCRF-CEM leukemia) of the same compound?
The TGI was 7.85 µM.

And the GI50 (UACC-257 melanoma)?
Its GI50 is 2.06 µM.

And the TGI (UACC-257 melanoma)?
The TGI was 6.69 µM.

What about the GI50 (HL-60(TB) leukemia) of the same compound?
Its GI50 is 2.09 µM.

And the TGI (HL-60(TB) leukemia)?
Its TGI is 5.6 µM.

And the GI50 (LOX IMVI melanoma)?
Its GI50 is 1.71 µM.

What about the TGI (LOX IMVI melanoma) of the same compound?
The TGI was 10.5 µM.

What about the GI50 (A498 renal) of the same compound?
Its GI50 is 2.31 µM.

And the TGI (A498 renal)?
Its TGI is 14.1 µM.

What about the GI50 (HOP-62 NSCLC) of the same compound?
The GI50 was 1.32 µM.

And the TGI (HOP-62 NSCLC)?
Its TGI is 13.7 µM.

What does the source list for `CCCCCCNC(=O)c1cc(NCc2cc(O)ccc2O)ccc1O`?
GI50 (PC-3 prostate): 2.47 µM; TGI (PC-3 prostate): 12 µM; GI50 (OVCAR-8 ovarian): 4.83 µM; TGI (OVCAR-8 ovarian): 36.2 µM; GI50 (RXF 393 renal): 2.42 µM; TGI (RXF 393 renal): 8.03 µM; GI50 (OVCAR-4 ovarian): 5.62 µM; TGI (OVCAR-4 ovarian): 19.3 µM; GI50 (CCRF-CEM leukemia): 0.409 µM; TGI (CCRF-CEM leukemia): 46.5 µM; GI50 (UACC-257 melanoma): 14.1 µM; TGI (UACC-257 melanoma): 30.4 µM; GI50 (HL-60(TB) leukemia): 0.578 µM; TGI (HL-60(TB) leukemia): 3.41 µM; GI50 (LOX IMVI melanoma): 6.84 µM; TGI (LOX IMVI melanoma): 22.4 µM; GI50 (A498 renal): 16.1 µM; TGI (A498 renal): > 100 µM; GI50 (HOP-62 NSCLC): 30 µM; TGI (HOP-62 NSCLC): 91.5 µM

How did the GI50 (PC-3 prostate) turn out when `C=COCCCOc1ccccc1` was run?
The GI50 was greater than 100 µM.

What about the TGI (PC-3 prostate) of the same compound?
The TGI was greater than 100 µM.

And the TGI (OVCAR-8 ovarian)?
Its TGI is greater than 100 µM.

And the TGI (RXF 393 renal)?
The TGI was greater than 100 µM.

And the TGI (OVCAR-4 ovarian)?
Its TGI is greater than 100 µM.

And the TGI (CCRF-CEM leukemia)?
The TGI was greater than 100 µM.

And the GI50 (UACC-257 melanoma)?
The GI50 was greater than 100 µM.

What about the TGI (UACC-257 melanoma) of the same compound?
Its TGI is greater than 100 µM.

What about the TGI (HL-60(TB) leukemia) of the same compound?
The TGI was greater than 100 µM.

And the TGI (LOX IMVI melanoma)?
The TGI was greater than 100 µM.

What about the GI50 (A498 renal) of the same compound?
Its GI50 is greater than 100 µM.

And the TGI (A498 renal)?
Its TGI is greater than 100 µM.

And the TGI (HOP-62 NSCLC)?
Its TGI is greater than 100 µM.

Which GI50 (PC-3 prostate) does the source give for `Clc1nc2ccccc2nc1CI` here?
Its GI50 is 8.81 µM.

And the TGI (PC-3 prostate)?
The TGI was 22.5 µM.

What about the GI50 (OVCAR-8 ovarian) of the same compound?
Its GI50 is 3.42 µM.

What about the TGI (OVCAR-8 ovarian) of the same compound?
The TGI was 12.4 µM.

And the GI50 (RXF 393 renal)?
The GI50 was 3.08 µM.

What about the TGI (RXF 393 renal) of the same compound?
Its TGI is 11.7 µM.

What about the GI50 (OVCAR-4 ovarian) of the same compound?
Its GI50 is 5.34 µM.

What about the TGI (OVCAR-4 ovarian) of the same compound?
The TGI was 18.3 µM.

And the GI50 (CCRF-CEM leukemia)?
The GI50 was 0.93 µM.

What about the TGI (CCRF-CEM leukemia) of the same compound?
The TGI was 4.99 µM.

And the GI50 (UACC-257 melanoma)?
Its GI50 is 12.9 µM.

What about the TGI (UACC-257 melanoma) of the same compound?
The TGI was 26.2 µM.

What about the GI50 (HL-60(TB) leukemia) of the same compound?
The GI50 was 2.86 µM.

And the TGI (HL-60(TB) leukemia)?
Its TGI is 18.2 µM.

And the GI50 (LOX IMVI melanoma)?
The GI50 was 1.03 µM.

What about the TGI (LOX IMVI melanoma) of the same compound?
The TGI was 3.34 µM.

What about the GI50 (A498 renal) of the same compound?
The GI50 was 20.5 µM.

What about the TGI (A498 renal) of the same compound?
The TGI was 42.9 µM.

And the GI50 (HOP-62 NSCLC)?
Its GI50 is 13.4 µM.

What about the TGI (HOP-62 NSCLC) of the same compound?
Its TGI is 30.6 µM.

`C=C1CC[C@@H]2[C@](C)(COC(C)=O)[C@H](OC(C)=O)CC[C@@]2(C)[C@@H]1CC(Sc1ccccc1)C1=CCOC1=O` (stereo partly drawn) was tested. Which GI50 (PC-3 prostate) did it give?
The GI50 was 1.84 µM.

And the TGI (PC-3 prostate)?
Its TGI is 10.1 µM.

What about the GI50 (OVCAR-8 ovarian) of the same compound?
The GI50 was 1.46 µM.

And the TGI (OVCAR-8 ovarian)?
Its TGI is 4.7 µM.

And the GI50 (RXF 393 renal)?
Its GI50 is 1.62 µM.

What about the TGI (RXF 393 renal) of the same compound?
The TGI was 3.12 µM.

What about the GI50 (OVCAR-4 ovarian) of the same compound?
Its GI50 is 1.36 µM.

What about the TGI (OVCAR-4 ovarian) of the same compound?
Its TGI is 3.11 µM.

And the GI50 (CCRF-CEM leukemia)?
The GI50 was 0.266 µM.

What about the TGI (CCRF-CEM leukemia) of the same compound?
Its TGI is 1.19 µM.

What about the GI50 (UACC-257 melanoma) of the same compound?
The GI50 was 1.91 µM.

What about the TGI (UACC-257 melanoma) of the same compound?
The TGI was 3.71 µM.

What about the GI50 (HL-60(TB) leukemia) of the same compound?
The GI50 was 0.43 µM.

What about the TGI (HL-60(TB) leukemia) of the same compound?
Its TGI is 2.27 µM.

And the GI50 (LOX IMVI melanoma)?
Its GI50 is 0.297 µM.

And the TGI (LOX IMVI melanoma)?
Its TGI is 1.19 µM.

And the GI50 (A498 renal)?
Its GI50 is 2.3 µM.

What about the TGI (A498 renal) of the same compound?
Its TGI is 14 µM.

What about the GI50 (HOP-62 NSCLC) of the same compound?
Its GI50 is 2.89 µM.

And the TGI (HOP-62 NSCLC)?
Its TGI is 5.52 µM.
